Read-outs that look alike come from different tables or passages of the source. Where a SMILES comes first, the peptide text is derived from it. Bridges are numbered along the chain shown (N, C = ends). [ ]: non-standard residue; d: D form. The star is where a group is joined. hPhe(3,5-F2-4-CF3) = N[C@@H](CCc1cc(F)c(C(F)(F)F)c(F)c1)C(=O)O; hPhe(3-Cl-4-CF3) = N[C@@H](CCc1ccc(C(F)(F)F)c(Cl)c1)C(=O)O; NPrPhe(4-CF3) = CCCN[C@@H](Cc1ccc(C(F)(F)F)cc1)C(=O)O; NMeAbu(4,4,4-F3) = CN[C@@H](CC(F)(F)F)C(=O)O; NMeGly(cPent) = CN[C@H](C(=O)O)C1CCCC1; NMeD = CN[C@@H](CC(=O)O)C(=O)O; Ac4c(3-oxa) = NC1(C(=O)O)COC1; NMeL = CN[C@@H](CC(C)C)C(=O)O; Morpholide = C1CN(*)CCO1; Ac5c = NC1(C(=O)O)CCCC1; Aze = O=C(O)[C@@H]1CCN1; Sar = CNCC(=O)O
Experiments:
[1] = target: GDP-bound HRAS wild-type protein (Homo sapiens, UniProt P01112); test: Binding to HRAS by surface plasmon resonance (SPR), Single Cycle Kinetics; settings: for HRAS/KRAS (ratio of KD value for HRAS to KD value for KRAS) / HRAS/KRAS (ratio of KD value with respect to HRAS to KD value with respect to KRAS): SPR, GDP-bound HRAS wild-type protein vs GDP-bound KRAS wild-type protein; for HRAS/KRAS (ratio of KD value with respect to GDP-bound HRAS wild-type protein to KD value with respect to KRAS): SPR KD ratio HRAS/KRAS, class symbols
[2] = target: GDP-bound KRAS wild-type protein (Homo sapiens, UniProt P01116); test: Binding to KRAS by surface plasmon resonance (SPR), Single Cycle Kinetics; settings: GDP-bound KRAS wild-type protein, read-out: KRAS KD
[3] = target: GDP-bound NRAS wild-type protein (Homo sapiens, UniProt P01111); test: Binding to NRAS by surface plasmon resonance (SPR), Single Cycle Kinetics; settings: for NRAS/KRAS (ratio of KD value for NRAS to KD value for KRAS) / NRAS/KRAS (ratio of KD value with respect to NRAS to KD value with respect to KRAS): SPR, GDP-bound NRAS wild-type protein vs GDP-bound KRAS wild-type protein; for NRAS/KRAS (ratio of KD value with respect to GDP-bound NRAS wild-type protein to KD value with respect to KRAS): SPR KD ratio NRAS/KRAS, class symbols
[4] = SPR Single Cycle Kinetics, 1:1 binding model

Chain of GDP-bound HRAS wild-type protein (P01112 whole entry): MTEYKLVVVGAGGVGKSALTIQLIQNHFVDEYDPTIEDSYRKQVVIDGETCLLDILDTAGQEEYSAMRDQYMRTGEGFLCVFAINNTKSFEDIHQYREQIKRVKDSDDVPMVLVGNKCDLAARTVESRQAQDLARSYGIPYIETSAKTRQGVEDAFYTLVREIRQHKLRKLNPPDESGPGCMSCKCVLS
Chain of GDP-bound NRAS wild-type protein (P01111 whole entry): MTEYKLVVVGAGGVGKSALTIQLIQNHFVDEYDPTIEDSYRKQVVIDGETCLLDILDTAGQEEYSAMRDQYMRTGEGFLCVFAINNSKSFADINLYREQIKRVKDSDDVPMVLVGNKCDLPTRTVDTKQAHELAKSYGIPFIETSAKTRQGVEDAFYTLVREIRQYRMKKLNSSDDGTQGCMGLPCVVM
Chain of GDP-bound KRAS wild-type protein (P01116 whole entry): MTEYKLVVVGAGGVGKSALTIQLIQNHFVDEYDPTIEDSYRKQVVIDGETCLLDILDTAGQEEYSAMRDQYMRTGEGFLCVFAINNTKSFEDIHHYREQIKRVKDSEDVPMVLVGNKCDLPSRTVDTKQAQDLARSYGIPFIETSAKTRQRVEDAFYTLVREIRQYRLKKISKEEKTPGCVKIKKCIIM

With CCO[C@@H]1C[C@H]2C(=O)NC3(CCC3)C(=O)N(C)[C@@H](C3CCCC3)C(=O)N(C)[C@H](C(=O)N(C)C)CC(=O)N(C)[C@@H](C(C)C)C(=O)N[C@@H]([C@@H](C)CC)C(=O)N(C)CC(=O)N(C)[C@H]3C/C=C\CCN(C3=O)[C@@H](Cc3ccc(C(F)(F)F)cc3)C(=O)N(C)CC(=O)N[C@@H](CCc3cc(F)c(C(F)(F)F)c(F)c3)C(=O)N2C1 [PP1109, (2S,8S,12R,14S,20S,23S,27S,30S,36S,38Z)-20-cyclopentyl-8-[2-[3,5-difluoro-4-(trifluoromethyl)phenyl]ethyl]-12-ethoxy-27-isopropyl-N,N,4,19,22,26,32,35-octamethyl-30-[(1S)-1-methylpropyl]-3,6,9,15,18,21,25,28,31,34,42-undecaoxo-2-[[4-(trifluoromethyl)phenyl]methyl]spiro[1,4,7,10,16,19,22,26,29,32,35-undecazatricyclo[34.5.1.0^10,14]dotetracont-38-ene-17,1′-cyclobutane]-23-carboxamide] the “HRAS/KRAS (ratio of KD value for HRAS to KD value for KRAS)” value [1] was “B (a compound having 3 or more and less than 10 is denoted as B)”, the Kd ([2]; SPR, Single Cycle Kinetics) was 0.12 nM and the “NRAS/KRAS (ratio of KD value for NRAS to KD value for KRAS)” value [3] was “A (a compound having 10 or more and less than 20 is denoted as A)”.
CCO[C@@H]1C[C@H]2C(=O)NC3(CCC3)C(=O)N(C)[C@@H](C3CCCC3)C(=O)N(C)[C@H](C(=O)N3CCOCC3)CC(=O)N(C)[C@@H](COC)C(=O)N[C@@H]([C@@H](C)CC)C(=O)N(C)CC(=O)N(C)[C@H]3CCCCN(C3=O)[C@@H](Cc3ccc(C(F)(F)F)cc3)C(=O)N(C)CC(=O)N[C@@H](CCc3cc(F)c(C(F)(F)F)c(F)c3)C(=O)N2C1 [PP0719] was tested, and the “HRAS/KRAS (ratio of KD value with respect to HRAS to KD value with respect to KRAS)” value [1] was “B (a compound having 3 or more and less than 10 is denoted as B)”, the Kd [2, 4] was 0.02 nM and the “NRAS/KRAS (ratio of KD value with respect to NRAS to KD value with respect to KRAS)” value [3] was “C (A compound having a KD ratio of 0.1 or more and less than 3 is denoted as C)”.
For CCO[C@@H]1C[C@H]2C(=O)NC3(CCC3)C(=O)N(C)[C@@H](C3CCCC3)C(=O)N(C)[C@H](C(=O)N(C)C)CC(=O)N(C)[C@@H](CC3CC3)C(=O)N[C@@H]([C@@H](C)CC)C(=O)N(C)CC(=O)N(C)[C@H]3C/C=C\CCN(C3=O)[C@@H](Cc3ccc(C(F)(F)F)cc3)C(=O)N(C)CC(=O)N[C@@H](CCc3cc(F)c(C(F)(F)F)c(F)c3)C(=O)N2C1 [PP1111, (2S,8S,12R,14S,20S,23S,27S,30S,36S,38Z)-20-cyclopentyl-27-(cyclopropylmethyl)-8-[2-[3,5-difluoro-4-(trifluoromethyl)phenyl]ethyl]-12-ethoxy-N,N,4,19,22,26,32,35-octamethyl-30-[(1S)-1-methylpropyl]-3,6,9,15,18,21,25,28,31,34,42-undecaoxo-2-[[4-(trifluoromethyl)phenyl]methyl]spiro[1,4,7,10,16,19,22,26,29,32,35-undecazatricyclo[34.5.1.0^10,14]dotetracont-38-ene-17,1′-cyclobutane]-23-carboxamide], the “HRAS/KRAS (ratio of KD value for HRAS to KD value for KRAS)” value [1] was “A (a compound having 10 or more and less than 20 is denoted as A)”, the Kd ([2]; SPR, Single Cycle Kinetics) was 0.045 nM and the “NRAS/KRAS (ratio of KD value for NRAS to KD value for KRAS)” value [3] was “A (a compound having 10 or more and less than 20 is denoted as A)”.
For CCO[C@@H]1C[C@H]2C(=O)NC3(CC(C)(C)C3)C(=O)N(C)[C@@H](C3CCCC3)C(=O)N(C)[C@H](C(=O)N3CCCCC3)CC(=O)N(C)[C@H]3CCC/C=C/c4ccc(cc4)C[C@@H](C(=O)N(C)CC(=O)N[C@@H](CCc4ccc(Cl)c(Cl)c4)C(=O)N2C1)N1CC/C=C\C[C@@H](C1=O)N(C)C(=O)CN(C)C(=O)[C@H]([C@@H](C)CC)NC3=O [PP2578], the “HRAS/KRAS (ratio of KD value with respect to GDP-bound HRAS wild-type protein to KD value with respect to KRAS)” value [1] was “A (a compound having 10 or more and less than 20 is denoted as A)”, the Kd [2, 4] was 0.27 nM and the “NRAS/KRAS (ratio of KD value with respect to GDP-bound NRAS wild-type protein to KD value with respect to KRAS)” value [3] was “AA (a compound having 20 or more is denoted as AA)”.
CCO[C@@H]1C[C@H]2C(=O)NC3(CCC3)C(=O)N(C)[C@@H](C3CCCC3)C(=O)N(C)[C@H](C(=O)N(C)C)CC(=O)N(C)[C@@H](Cc3cccnc3)C(=O)N[C@@H]([C@@H](C)CC)C(=O)N(C)CC(=O)N(C)[C@H]3CCCCN(C3=O)[C@@H](Cc3ccc(C(F)(F)F)cc3)C(=O)N(C)CC(=O)N[C@@H](CCc3cc(F)c(C(F)(F)F)c(F)c3)C(=O)N2C1 [PP0703] was tested, and the “HRAS/KRAS (ratio of KD value with respect to HRAS to KD value with respect to KRAS)” value [1] was “B (a compound having 3 or more and less than 10 is denoted as B)”, the Kd [2, 4] was 0.013 nM and the “NRAS/KRAS (ratio of KD value with respect to NRAS to KD value with respect to KRAS)” value [3] was “C (A compound having a KD ratio of 0.1 or more and less than 3 is denoted as C)”.
With CC[C@H](C)[C@@H]1NC(=O)[C@H](CC)N(C)C(=O)C[C@@H](C(=O)N(C)C)N(C)C(=O)[C@H](C2CCCC2)N(C)C(=O)C2(CCC2)NC(=O)[C@@H]2C[C@H](N3CCC(F)(F)CC3)CN2C(=O)[C@H](CCc2cc(F)c(C(F)(F)F)c(F)c2)NC(=O)CN(C)C(=O)[C@H](Cc2ccc(C(F)(F)F)cc2)N2CCCCC[C@@H](C2=O)N(C)C(=O)CN(C)C1=O [PP0731] the “HRAS/KRAS (ratio of KD value with respect to HRAS to KD value with respect to KRAS)” value [1] was “B (a compound having 3 or more and less than 10 is denoted as B)”, the Kd [2, 4] was 1.6 nM and the “NRAS/KRAS (ratio of KD value with respect to NRAS to KD value with respect to KRAS)” value [3] was “B (a compound having 3 or more and less than 10 is denoted as B)”.
CCCN1C(=O)CN(C)C(=O)CN(C)C(=O)[C@H]([C@@H](C)CC)NC(=O)[C@H](CC(C)C)N(C)C(=O)C[C@@H](C(=O)N2CCOCC2)N(C)C(=O)[C@H](C2CCCC2)N(C)C(=O)C2(CCCC2)NC(=O)[C@@H]2CCCN2C(=O)[C@H](CCc2ccc(C(F)(F)F)c(Cl)c2)NC(=O)CN(C)C(=O)[C@@H]1Cc1ccc(C(F)(F)F)cc1 [PP0060] ([NMeL]I[Sar][Sar][NPrPhe(4-CF3)][Sar][hPhe(3-Cl-4-CF3)]P[Ac5c][NMeGly(cPent)][NMeD]-Morpholide; lactam N-11) was tested, and the “HRAS/KRAS (ratio of KD value for HRAS to KD value for KRAS)” value [1] was “B (a compound having 3 or more and less than 10 is denoted as B)”, the Kd [2, 4] was 0.099 nM and the “NRAS/KRAS (ratio of KD value for NRAS to KD value for KRAS)” value [3] was “B (a compound having 3 or more and less than 10 is denoted as B)”.
With CCCN1C(=O)CN(C)C(=O)[C@@H]2CCN2C(=O)[C@H]([C@@H](C)CC)NC(=O)[C@H](CC(C)C)N(C)C(=O)C[C@@H](C(=O)N2CCOCC2)N(C)C(=O)[C@H](C2CCCC2)N(C)C(=O)C2(COC2)NC(=O)[C@@H]2CCCN2C(=O)[C@H](CCc2cc(F)c(C(F)(F)F)c(F)c2)NC(=O)CN(C)C(=O)[C@@H]1Cc1ccc(C(F)(F)F)cc1 [PP0782] ([NMeL]I[Aze][Sar][NPrPhe(4-CF3)][Sar][hPhe(3,5-F2-4-CF3)]P[Ac4c(3-oxa)][NMeGly(cPent)][NMeD]-Morpholide; lactam N-11) the “HRAS/KRAS (ratio of KD value with respect to HRAS to KD value with respect to KRAS)” value [1] was “B (a compound having 3 or more and less than 10 is denoted as B)”, the Kd [2, 4] was 2.3 nM and the “NRAS/KRAS (ratio of KD value with respect to NRAS to KD value with respect to KRAS)” value [3] was “B (a compound having 3 or more and less than 10 is denoted as B)”.
CCCN1C(=O)CN(C)C(=O)[C@@H]2CCN2C(=O)[C@H]([C@@H](C)CC)NC(=O)[C@H](CC(C)C)N(C)C(=O)C[C@@H](C(=O)N2CCOCC2)N(C)C(=O)[C@H](CC(F)(F)F)N(C)C(=O)C2(CCCC2)NC(=O)[C@@H]2CCCN2C(=O)[C@H](CCc2cc(F)c(C(F)(F)F)c(F)c2)NC(=O)CN(C)C(=O)[C@@H]1Cc1ccc(C(F)(F)F)cc1 [PP0784] ([NMeL]I[Aze][Sar][NPrPhe(4-CF3)][Sar][hPhe(3,5-F2-4-CF3)]P[Ac5c][NMeAbu(4,4,4-F3)][NMeD]-Morpholide; lactam N-11) was tested, and the “HRAS/KRAS (ratio of KD value with respect to HRAS to KD value with respect to KRAS)” value [1] was “B (a compound having 3 or more and less than 10 is denoted as B)”, the Kd [2, 4] was 17 nM and the “NRAS/KRAS (ratio of KD value with respect to NRAS to KD value with respect to KRAS)” value [3] was “B (a compound having 3 or more and less than 10 is denoted as B)”.
In the case of CCO[C@@H]1C[C@H]2C(=O)NC3(CCC3)C(=O)N(C)[C@@H](C3CCCC3)C(=O)N(C)[C@H](C(=O)N3CCCCC3)CC(=O)N(C)[C@H]3CCC/C=C/c4ccc(cc4)C[C@@H](C(=O)N(C)CC(=O)N[C@@H](CCc4cc(F)c(C(F)(F)F)c(F)c4)C(=O)N2C1)N1CC/C=C\C[C@@H](C1=O)N(C)C(=O)CN(C1CC1)C(=O)[C@H]([C@@H](C)CC)NC3=O [PP2954], the “HRAS/KRAS (ratio of KD value with respect to GDP-bound HRAS wild-type protein to KD value with respect to KRAS)” value [1] is reported as “A (a compound having 10 or more and less than 20 is denoted as A)”, the Kd [2, 4] is reported as 0.37 nM and the “NRAS/KRAS (ratio of KD value with respect to GDP-bound NRAS wild-type protein to KD value with respect to KRAS)” value [3] is reported as “A (a compound having 10 or more and less than 20 is denoted as A)”.
In the case of CCCN1C(=O)CN(C)C(=O)CN(C)C(=O)[C@H]([C@@H](C)CC)NC(=O)[C@H](CC(C)C)N(C)C(=O)C[C@@H](C(=O)N2CCOCC2)N(C)C(=O)[C@H](C2CCCC2)N(C)C(=O)C2(CCCC2)NC(=O)[C@@H]2CCCN2C(=O)[C@H](CCc2cc(F)c(C(F)(F)F)c(F)c2)NC(=O)CN(C)C(=O)[C@@H]1Cc1ccc(C(F)(F)F)cc1 [PP0753] ([NMeL]I[Sar][Sar][NPrPhe(4-CF3)][Sar][hPhe(3,5-F2-4-CF3)]P[Ac5c][NMeGly(cPent)][NMeD]-Morpholide; lactam N-11), the “HRAS/KRAS (ratio of KD value with respect to HRAS to KD value with respect to KRAS)” value [1] is reported as “C (A compound having a KD ratio of 0.1 or more and less than 3 is denoted as C)”, the Kd [2, 4] is reported as 0.14 nM and the “NRAS/KRAS (ratio of KD value with respect to NRAS to KD value with respect to KRAS)” value [3] is reported as “B (a compound having 3 or more and less than 10 is denoted as B)”.
